Assay type in all cases: biochemical
One assay deals with T1, Human plasma thrombin (Homo sapiens, UniProt P00734).
T1 construct: from tissue; host or cells: human plasma
Nature of the assay: Ki determination, human plasma thrombin (H-D-Phe-Pip-Arg-pNA). The settings on record: 50 mM Tris-HCl, pH 8.3, 100 mM NaCl, 1% BSA; read-out: Experimentally Determined Ki, Thrombin. As to the method: (§1) Protease inhibition was assayed according to published procedures with minor modifications using various proteases and specific chromogenic peptide p-nitroanilide substrates. Assays were performed in Costar ultra-low cluster 96-well microtiter plate (Costar Corning Corp., Cambridge Mass.). Each protease was incubated with various concentrations of the test compound for 15 min. at 37° C. or as otherwise indicated, in specific assay buffer, and the residual activity was then measured by addition of the substrate. p-Nitroaniline produced by the proteolysis was determined by measuring the change in absorbance at 405 nm on a SpectraMAX 340 plate reader (Molecular devices, Sunnyvale, Calif.).
(§2) 1. The inhibition constant, Ki is calculated from individual data points using the equation for a tight-binding inhibitor (See Beith, "Proteinase Inhibitors-Proceedings of 2nd Int. Res. Conference", Fritz, et al. eds, New York, p.4463-4469 (1974)):
(§3) vi /vo [((Ki '+[I]+[E]o)^2 -4 [I]o
(§4) [E]o)^1/2 (Ki '+[I]o -[E]o)]/2[E]o
(§5) where Ki ' is apparent inhibition constant; vi and vo are the inhibited and uninhibited rates, respectively; [I]o and [E]o are the total concentrations of inhibitor and enzyme, respectively.
(§6) [note: [E]o is determined by active site titration of enzyme]
(§7) The Ki values are obtained by correcting Ki ' values for the effect of substrate concentration according to: [formula]
(§8) 2. Other inhibition data (Ki >>[E]o), the Ki is calculated from using the equations for a competitive inhibitor: [formula]
Human plasma thrombin activity was determined by using H-D-Phe-Pip-Arg-pNA in 50 mM Tris-HCl, pH 8.3, 100 mM NaCl, 1% BSA (See Lottenberg, et al. Meth. Enzymol. 80, 341-361 (1981)).
(§9) The inhibition constant (Ki) of the test compounds against each proteolytic enzyme was determined according to Zitnik et al., Biochem. Biophys. Res. Commun. 232, 687-697 (1997)).

A further assay deals with T2, Human plasma plasmin (Homo sapiens, UniProt P00747).
T2 construct: from tissue; host or cells: human plasma
The experiment in a line: Ki determination, human plasma plasmin (Tosyl-Gly-Pro-Lys-pNA). Conditions: 100 mM Tris-HCl, pH 7.4, 100 mM NaCl, 0.05% Triton X-100; read-out: Experimentally Determined Ki, Plasmin. As to the method: as §1, §2, §3, §4, §5, §6, §7, §8
Human plasma plasmin activity was determined by using Tosyl-Gly-Pro-Lys-pNAin 100 mM Tris-HCl, pH 7.4, 100 mM NaCl, 0.05% Triton X-100 (See Lottenberg, et al., Meth. Enzymol. 80, 341-361 (1981)).
as §9

Assay [1] addresses T3, Human Neutrophil elastase (Homo sapiens, UniProt P08246).
T3 construct: from tissue; host or cells: human neutrophils
T3 sequence (P08246 30-267): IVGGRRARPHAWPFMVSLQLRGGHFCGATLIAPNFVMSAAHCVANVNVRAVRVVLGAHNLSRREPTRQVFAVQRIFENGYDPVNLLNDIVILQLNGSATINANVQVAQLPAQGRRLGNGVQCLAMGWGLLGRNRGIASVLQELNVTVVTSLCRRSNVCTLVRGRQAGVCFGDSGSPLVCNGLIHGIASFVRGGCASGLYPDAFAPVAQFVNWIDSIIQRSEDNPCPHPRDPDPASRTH
Nature of the assay: Ki determination, human neutrophil elastase (pyroGlu-Pro-Val-pNA). Conditions: 100 mM Tris-HCl, pH 8.3, 0.96 M NaCl, 1% BSA; read-out: Experimentally Determined Ki, Elastase. As to the method: as §1, §2, §3, §4, §5, §6, §7, §8
Human Neutrophil elastase activity was determined by using pyroGlu-Pro-Val-pNA in 100 mM Tris-HCl, pH 8.3, 0.96 M NaCl, 1% BSA (See Kramps, et al. Scand. J. Clin. Lab. Invest. 43, 427-432 (1983)).
as §9

In assay [2] the target is T4, Human Neutrophil Cathepsin G (Homo sapiens, UniProt P08311).
T4 construct: from tissue; host or cells: human neutrophils
T4 sequence (P08311 21-255): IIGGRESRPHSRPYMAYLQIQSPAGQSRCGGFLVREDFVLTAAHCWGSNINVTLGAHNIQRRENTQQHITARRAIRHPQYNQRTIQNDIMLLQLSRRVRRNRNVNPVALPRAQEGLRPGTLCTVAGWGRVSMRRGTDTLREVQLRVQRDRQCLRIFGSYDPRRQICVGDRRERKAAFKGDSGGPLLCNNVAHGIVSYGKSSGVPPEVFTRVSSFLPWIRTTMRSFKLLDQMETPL
The experiment in a line: Ki determination, human neutrophil cathepsin G (N-Suc-Ala-Ala-Pro-Phe-pNA). The settings on record: 625 mM Tris-HCl, pH 7.5, 2.5 mM MgCl2, 0.125% Brij 35; read-out: Experimentally Determined Ki, Cathepsin G. As to the method:
as §1, §2, §3, §4, §5, §6, §7, §8
Human Neutrophil Cathepsin G activity was determined by using N-Suc-Ala-Ala-Pro-Phe-pNA in 625 mM Tris-HCl, pH 7.5, 2.5 mM MgCl2, 0.125% Brij 35 (See Groutas et al., Arch. Biochem. Biophys. 294, 144-146 (1992)).
as §9

What is called Ki is a measure of affinity in units of concentration, obtained from inhibition or displacement.

T2 sequence (P00747 581-810 limits assumed): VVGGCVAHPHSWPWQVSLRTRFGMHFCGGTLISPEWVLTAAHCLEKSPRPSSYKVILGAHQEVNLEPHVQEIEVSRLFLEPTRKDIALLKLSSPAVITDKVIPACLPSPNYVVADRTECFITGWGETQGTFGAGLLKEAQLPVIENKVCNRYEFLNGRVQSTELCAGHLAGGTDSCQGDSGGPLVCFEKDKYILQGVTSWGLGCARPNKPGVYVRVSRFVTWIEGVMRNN
T2 sequence (P00747 97-580 partner limits assumed): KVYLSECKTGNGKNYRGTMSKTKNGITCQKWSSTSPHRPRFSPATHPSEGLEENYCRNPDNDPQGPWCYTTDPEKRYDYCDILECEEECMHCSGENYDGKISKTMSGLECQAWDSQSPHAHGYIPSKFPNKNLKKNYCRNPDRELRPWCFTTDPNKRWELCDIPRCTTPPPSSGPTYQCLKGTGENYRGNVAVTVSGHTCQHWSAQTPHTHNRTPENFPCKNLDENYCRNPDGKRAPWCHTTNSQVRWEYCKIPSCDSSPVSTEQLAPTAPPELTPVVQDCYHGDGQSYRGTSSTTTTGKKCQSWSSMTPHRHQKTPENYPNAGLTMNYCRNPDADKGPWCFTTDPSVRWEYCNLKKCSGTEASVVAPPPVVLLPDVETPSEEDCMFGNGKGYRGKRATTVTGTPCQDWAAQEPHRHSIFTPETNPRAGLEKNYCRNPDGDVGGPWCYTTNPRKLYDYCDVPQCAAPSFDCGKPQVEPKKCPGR

In the case of `N=C(N)c1cccc(S(=O)(=O)NCc2ccc(OCCCCCCOc3ccc(CNS(=O)(=O)c4cccc(C(=N)N)c4)cc3)cc2)c1` [Example 43, 1,6-Bis-{4-[(3-carbamimidoyl-benzenesulfonylamino)-methyl]-phenoxy}-hexane], the Ki is over 100 µM on Human plasma thrombin, 2.6 µM on Human plasma plasmin, over 100 µM in assay [1] and over 100 µM in assay [2].

As to `N=C(N)c1cccc(S(=O)(=O)NCc2ccc(OCCCCCCCOc3ccc(CNS(=O)(=O)c4cccc(C(=N)N)c4)cc3)cc2)c1` [Example 45, 1,7-Bis-{4-[(3-carbamimidoyl-benzenesulfonylamino)-methyl]-phenoxy}-heptane], the Ki was over 100 µM at Human plasma thrombin, 10 µM at Human plasma plasmin, over 100 µM in assay [1] and over 100 µM in assay [2].

For the compound `N=C(N)c1cccc(S(=O)(=O)NCc2ccc(OCCCOc3ccc(CNS(=O)(=O)c4cccc(C(=N)N)c4)cc3)cc2)c1` [Example 49, 3,1-Bis-{4-[(3-carbamimidoyl-benzenesulfonylamino)-methyl]-phenoxy}-propane], the Ki on Human plasma thrombin was over 100 µM; on Human plasma plasmin it was 0.74 µM; in assay [1], over 100 µM; in assay [2] it was over 100 µM.

For the compound `N=C(N)c1cccc(S(=O)(=O)NCc2ccc(OCCOc3ccc(CNS(=O)(=O)c4cccc(C(=N)N)c4)cc3)cc2)c1` [Example 51, 1,2-Bis-{4-[(3-carbamimidoyl-benzenesulfonylamino)-methyl]-phenoxy}-ethane], the Ki was over 100 µM on Human plasma thrombin, 2 µM at Human plasma plasmin, over 100 µM in assay [1] and over 100 µM in assay [2].

As for `N=C(N)c1cccc(S(=O)(=O)NCc2ccc(COCc3ccc(CNS(=O)(=O)c4cccc(C(=N)N)c4)cc3)cc2)c1` [Example 53, 1,3-Bis-{4-[(3-carbamimidoyl-benzenesulfonylamino)-methyl]-phenyl}-2-oxapropane], the Ki is over 100 µM on Human plasma thrombin, 10 µM on Human plasma plasmin, over 100 µM in assay [1] and over 100 µM in assay [2].

Regarding `N=C(N)c1cccc(C(=O)NCc2ccc(OCCCCCCOc3ccc(CNC(=O)c4cccc(C(=N)N)c4)cc3)cc2)c1` [Example 57, 1,6-Bis-{4-[(3-carbamimidoyl-benzenecarbonylamino)-methyl]-phenoxy}-hexane], the Ki at Human plasma thrombin was over 100 µM; at Human plasma plasmin, 10.7 µM; in assay [1], over 100 µM; in assay [2], over 100 µM.

As to `N=C(N)c1ccc(C(=O)NCc2ccc(OCCCCCCCOc3ccc(CNC(=O)c4ccc(C(=N)N)cc4)cc3)cc2)cc1` [Example 58, 1,7-Bis-{4-[(4-carbamimidoyl-benzenecarbonylamino)-methyl]-phenoxy}-heptane], the Ki is over 100 µM on Human plasma thrombin, 3.8 µM on Human plasma plasmin, over 100 µM in assay [1] and over 100 µM in assay [2].

Consider `N=C(N)c1cccc(C(=O)NCc2ccc(OCCCCCCCOc3ccc(CNC(=O)c4cccc(C(=N)N)c4)cc3)cc2)c1` [Example 59, 1,7-Bis-{4-[(3-carbamimidoyl-benzenecarbonylamino)-methyl]-phenoxy}-heptane], for which the Ki is over 100 µM at Human plasma thrombin, 8.7 µM on Human plasma plasmin, over 100 µM in assay [1] and over 100 µM in assay [2].

`N=C(N)c1ccc(C(=O)NCc2ccc(OCCCCOc3ccc(CNC(=O)c4ccc(C(=N)N)cc4)cc3)cc2)cc1` [Example 60, 1,4-Bis-{4-[(4-carbamimidoyl-benzenecarbonylamino)-methyl]-phenoxy}-butane]: the Ki was over 100 µM on Human plasma thrombin, 12 µM on Human plasma plasmin, over 100 µM in assay [1] and over 100 µM in assay [2].

Regarding `N=C(N)c1cccc(C(=O)NCc2ccc(OCCCCOc3ccc(CNC(=O)c4cccc(C(=N)N)c4)cc3)cc2)c1` [Example 61, 1,4-Bis-{4-[(3-carbamimidoyl-benzenecarbonylamino)-methyl]-phenoxy}-butane], the Ki at Human plasma thrombin was over 100 µM; on Human plasma plasmin, 6 µM; in assay [1], over 100 µM; in assay [2], over 100 µM.

Turning to `N=C(N)c1ccc(C(=O)NCc2ccc(OCCCOc3ccc(CNC(=O)c4ccc(C(=N)N)cc4)cc3)cc2)cc1` [Example 62, 1,3-Bis-{4-[(4-carbamimidoyl-benzoylamino)-methyl]-phenoxy}-propane], the Ki at Human plasma thrombin is over 100 µM; on Human plasma plasmin it was 11.6 µM; in assay [1], over 100 µM; in assay [2] it was over 100 µM.

On to `N=C(N)c1cccc(C(=O)NCc2ccc(OCCCOc3ccc(CNC(=O)c4cccc(C(=N)N)c4)cc3)cc2)c1` [Example 63, 1,3-Bis-{4-[(3-carbamimidoyl-benzoylamino)-methyl]-phenoxy}-propane], for which the Ki on Human plasma thrombin is over 100 µM; at Human plasma plasmin, 28 µM; in assay [1], over 100 µM; in assay [2], over 100 µM.

With `N=C(N)c1ccc(C(=O)NCc2ccc(OCCOc3ccc(CNC(=O)c4ccc(C(=N)N)cc4)cc3)cc2)cc1` [Example 64, 1,2-Bis-{4-[(4-carbamimidoyl-benzoylamino)-methyl]-phenoxy}-ethane], the Ki at Human plasma thrombin is over 100 µM; at Human plasma plasmin it was 6.5 µM; in assay [1], over 100 µM; in assay [2], over 100 µM.

For the compound `N=C(N)c1cccc(C(=O)NCc2ccc(OCCOc3ccc(CNC(=O)c4cccc(C(=N)N)c4)cc3)cc2)c1` [Example 65, 1,2-Bis-{4-[(3-carbamimidoyl-benzoylamino)-methyl]-phenoxy}-ethane], the Ki was over 100 µM at Human plasma thrombin, 46 µM at Human plasma plasmin, over 100 µM in assay [1] and over 100 µM in assay [2].

With `N=C(N)c1ccc(C(=O)NCc2ccc(COCc3ccc(CNC(=O)c4ccc(C(=N)N)cc4)cc3)cc2)cc1` [Example 66, 1,3-Bis-{4-[(4-carbamimidoyl-benzenecarbonylamino)-methyl]-phenyl}-2-oxapropane], the values for the Ki (on Human plasma thrombin; on Human plasma plasmin; in assay [1]) were over 100 µM, 10.1 µM and over 100 µM, respectively.

As for `CN(Cc1ccc(OCCCOc2ccc(CN(C)S(=O)(=O)c3cccc(C(=N)N)c3)cc2)cc1)S(=O)(=O)c1cccc(C(=N)N)c1` [Example 68, 1,3-Bis-{4-[(3-carbamimidoyl-benzenesulfonyl-[N-methyl]-amino)-methyl]-phenoxy}-propane], the Ki on Human plasma thrombin was over 100 µM; at Human plasma plasmin it was 10 µM; in assay [1], over 100 µM; in assay [2], over 100 µM.

Turning to `N=C(N)c1ccc(C(=O)NCc2cccc(OCCCCCOc3cccc(CNC(=O)c4ccc(C(=N)N)cc4)c3)c2)cc1` [Example 76, 1,5-Bis-{3-[(4-carbamimidoyl-benzenecarbonylamino)-methyl]-phenoxy}-pentane], the Ki on Human plasma thrombin is 21 µM; on Human plasma plasmin, over 100 µM; in assay [1], over 100 µM; in assay [2] it was over 100 µM.

Values taken from US6221914A, “Sulfonamide bridging compounds that inhibit tryptase activity” (Array Biopharma Inc., priority 1998, dated 2001).
